Test results reported in US7863446B2, “Heterocycles” (Orchid Research Laboratories Limited, priority 2006, dated 2011).

How the values were obtained:
COX-2 = target: T1, COX-2 (Homo sapiens, UniProt P35354); assay: Human whole blood assay (PGE-2 inhibition, COX-2); assay type: cell-based; conditions: LPS stimulated human whole blood, NA = No activity, read-out: % PGE-2 Inhibition in hWBA
T1 construct: Fresh blood was collected in tubes containing sodium heparin by vein puncture from healthy male volunteers; endogenous in cells; host or cells: human whole blood from healthy male volunteers, stimulated with LPS
T1 sequence (P35354 18-604): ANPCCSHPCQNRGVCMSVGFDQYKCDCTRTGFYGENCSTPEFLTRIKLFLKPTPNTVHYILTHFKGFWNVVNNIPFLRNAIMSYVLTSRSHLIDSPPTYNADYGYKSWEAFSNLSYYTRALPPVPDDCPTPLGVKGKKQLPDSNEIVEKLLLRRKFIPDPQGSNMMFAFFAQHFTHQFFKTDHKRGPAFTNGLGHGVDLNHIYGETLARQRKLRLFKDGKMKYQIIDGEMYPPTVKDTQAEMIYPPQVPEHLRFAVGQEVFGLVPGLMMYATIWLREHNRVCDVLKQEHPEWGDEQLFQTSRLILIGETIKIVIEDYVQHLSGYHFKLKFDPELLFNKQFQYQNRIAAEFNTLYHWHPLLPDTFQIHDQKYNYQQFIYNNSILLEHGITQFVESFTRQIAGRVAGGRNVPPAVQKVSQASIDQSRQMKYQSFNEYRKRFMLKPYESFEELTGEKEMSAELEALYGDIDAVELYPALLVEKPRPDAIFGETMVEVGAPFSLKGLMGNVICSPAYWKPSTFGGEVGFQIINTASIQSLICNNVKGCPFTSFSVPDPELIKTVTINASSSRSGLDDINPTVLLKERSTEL
Protocol: In Vitro Evaluation of Cyclooxygenase-2 (Cox-2) Inhibition Activity
The COX-2 inhibition activities of the compounds illustrated in the examples were determined by the following method.
Human whole blood provides a protein and cell rich milieu appropriate for the study of the biochemical efficacy of anti-inflammatory compounds such as selective COX-2 inhibitors. […] This correlates with the observation that COX-2 inhibitors have no effect on prostaglandin E2 (PGE2) production in normal blood. These inhibitors were active only after incubation of human blood with lipopolysaccharide (LPS), which induces COX-2 production in the blood.
Fresh blood was collected in tubes containing sodium heparin by vein puncture from healthy male volunteers. The subjects should have no apparent inflammatory conditions and should have not taken NSAIDs for at least 7 days prior to blood collection. Blood was preincubated with aspirin in vitro (12 μg/ml, at time zero) to inactivate COX-1 for 6 hours. Then test compounds (at various concentrations) or vehicle were added to blood, the blood was stimulated with LPS B:4 (10 μg/ml) and incubated for another 18 hours at 37° C. water bath. After which the blood was centrifuged, plasma was separated and stored at −80° C. (J. Pharmacol. Exp. Ther, 271, 1705, 1994; Proc. Natl. Acad. Sci. USA, 96, 7563, 1999). The plasma was assayed for PGE2 using Cayman ELISA kit as per the procedure outlined by the manufacturer (Cayman Chemicals, Ann Arbor, USA).

Animals (male wistar) = assay: Ulcerogenic potential; assay type: in vivo; conditions: oral, 4 hours after administration
Protocol: In order to evaluate the compound's role on the ulcer formation, the animals were sacrificed and the stomach was taken out and flushed with 1% formalin. Animals (male wistar. 200 g) were fasted for 18 hours with free access to water and the test compounds were suspended in 0.5% Tween 80 and 0.25% CMC (carboxymethylcellulose) solution to make a uniform suspension. After 4 hours of oral administration of test compounds, all the animals were sacrificed by cervical dislocation. The stomach was dissected carefully and filled up with a sterile saline solution and embedded in 6% formalin solution. […] The test compound treated groups were compared with the vehicle treated groups. […]

HCT-116 = assay: Anti-cancer screen (MTT), HCT-116; assay type: cell-based; conditions: Homo sapiens, HCT-116, 48 hours
Protocol: Experimental drugs are screened for anti-cancer activity in three cell lines for their GI50, TG1 and LC50 values (using 5 concentrations for each compound). The cell lines are maintained in DMEM containing 10% fetal bovine serum. 96 well microtiter plates are inoculated with cells in […] for 24 hours at 37° C., 5% CO2, 95% air and 100% relative humidity. 5000 HCT116 cells/well, 5000 NCIH460 cells/well, 10000 U251 cells/well and 5000 MDAMB231 cells/well are plated. A separate plate with these cell lines is also inoculated to determine cell viability before the addition of the compounds (T0).
Addition of Experimental Drugs
Following 24-hour incubation, experimental drugs are added to the 96 well plates. Each plate contains one of the above cell lines and the following in triplicate: 5 different concentrations (0.01, 0.1, 1, 10 and 100 μM) of 4 different compounds, appropriate dilutions of a cytotoxic standard and control (untreated) wells. Compounds are dissolved in dimethylsulfoxide (DMSO) to make 20 mM stock solutions, on the day of drug addition and frozen at −20° C. Serial dilutions of these 20 mM stock solutions are made in complete growth medium such that 100 μL of these drug solutions in medium, of final concentrations equaling 0.01, 0.1, 1, 10 and 100 μM can be added to the cells in triplicate. Standard drugs whose anti-cancer activity has been well documented and which are regularly used are doxorubicin and SAHA.
Cells are incubated with compounds for 48 hours followed by the addition of 10 μL 3-(4,5-Dimethyl-2-thiazolyl)-2,5-diphenyl-2H-tetrazolium (MTT) solution per well and a subsequent incubation at 37° C., 5% CO2, 95% air and 100% relative humidity, protected from light. After 4 hours, well contents are aspirated carefully followed by addition of 150 μL DMSO per well. Plates are agitated to ensure solution of the formazan crystals in DMSO and absorbance read at 570 nm.
Calculation of GI50, TGI and LC50
Percent growth is calculated for each compound's concentration relative to the control and zero measurement wells (T0; viability right before compound addition).
If a test well's O.D. value is greater than the T0 measurement for that cell line % Growth=(test−zero)/(control−zero)×100
If a test well's O.D. value is lower than the T0 measurement for that cell line, then % Growth=(test−zero)/zero×100 Plotting % growth versus experimental drug concentration, GI50 is the concentration required to decrease % growth by 50%; TGI is the concentration required to decrease % growth by 100% and LC50 is the concentration required to decrease % growth by 150%.

CNS(=O)(=O)c1ccc(-c2c(Cl)nc(C(F)(F)F)nc2-c2ccc(S(C)(=O)=O)cc2)cc1 [Example 4, 4-{4-Chloro-6-[4-(methylsulfonyl)phenyl]-2-(trifluoromethyl)pyrimidin-5-yl}-N-methylbenzenesulfonamide]
inhibition at 0.25 µM (COX-2; 0.25 μM): 6.1% | inhibition at 1 µM (COX-2; 1 μM): 22.9% | inhibition at 10 µM (COX-2; 10 μM): 35.6% | Ulcer incidence at 5 mg/kg (Animals (male wistar)): Nil | GI50 (HCT-116): 2 µM
